Assay results published in paper PMC5854716, “Synthesis, molecular docking, ctDNA interaction, DFT calculation and evaluation of antiproliferative and anti-Toxoplasma gondii activities of 2,4-diaminotriazine-thiazole derivatives” (Medicinal Chemistry Research, 2018).
Values after ≈ are worked out from the molar mass of the structure shown.

How the values were obtained:
VERO cells = test: Cell viability assay (MTT), VERO; format: cell-based, Cercopithecus aethiops; settings: concentration for 30% proliferation inhibition, 24 h
Protocol: (§1) The epithelial cell line VERO (ATCC-Catalog No. CCL-81^TM), derived from the kidney of the African green monkey, Cercopithecus aethiops and fibroblast cell line L-929 (ATCC-Catalog No. CCL-1^TM), derived from Mus musculus (http://www.atcc.org) were grown in Iscoves’s Modified Dulbecco’s Medium (IMDM) supplemented with 10% (v/v) fetal bovine serum (FBS), plus 2 mM L-glutamine, 100 U/ml penicillin, 100.00 µg/ml streptomycin, 5 × 10^−5 M 2-mercaptoethanol and maintained at 37 °C in a 10% CO2 atmosphere. Subcultures were performed via enzymatic cell dissociation in 0.25% trypsin. After dissociation, the cells were placed in culture medium at 4 °C with 10% FBS to inhibit the action of trypsin. The isolated cells were centrifuged for 10 min at 1000×g at 4 °C, and the cells were grown in new bottles. This procedure was repeated when cells reached a confluence of ~90%. All commercial reactants and solvents were purchased from either Sigma-Aldrich Laborchemikalien GmbH (Dzitko et al. [2014]).
(§2) Suspensions of the compounds 4a–l were freshly prepared (5 mg/ml DMSO) before the cells were exposed, and diluted to appropriate concentrations; 0.9, 1.8, 3.9, 7.8, 15.6, 31.2, 62.5, and 125.00 μg/ml with the culture medium. Cells treated with 2.5% DMSO-solvent served as a control in each experiment.
(§3) The effects of tested compounds on the viability of mouse fibroblasts L929 and […] VERO cells were evaluated using the MTT assay. The MTT assay was used according to international standards: ISO 10993-5:2009 (Tests for in vitro cytotoxicity; http://www.iso.org/iso/catalogue_detail.htm? csnumber = 36406). L929 and VERO cells were plated into 96-well plates at a density of 1.0 × 10^4/100 μl/well in culture medium and allowed to attach for 24 h before treatment. Afterwards, culture medium in the plates was replaced by 100 μl compounds suspension at concentration of 0–125 μg/ml and the cells were exposed for 24 h. Then 1 mg/ml MTT (50 μl/well) was added to each well and incubated at 37 °C, 10 % CO2 for 2 h. Mitochondrial dehydrogenases of viable cells reduce the yellowish water-soluble MTT to water-insoluble formazan crystals, which were solubilized with dimethyl sulfoxide (DMSO). The cell culture medium was aspirated cautiously, after which 150 μl DMSO was added to each well and mixed thoroughly. Optical density (OD) was read on the ELISA reader (Multiskan EX, Labsystems; http://www.mtxlsi.com/multiskan_EX.htm) at 550 nm. The results were expressed as percentage viability compared with the treated 2.5% DMSO controls. All experiments were performed in triplicate.

[1] = Cell viability assay (MTT), VERO; format: cell-based, Cercopithecus aethiops; settings: African green monkey (Cercopithecus aethiops), VERO kidney epithelial cells
Protocol: as §1, §2, §3

mouse L929 fibroblast = test: Cell viability assay (MTT), L929; format: cell-based; settings: concentration for 30% proliferation inhibition, 24 h
Protocol: as §1, §2, §3

[2] = Cell viability assay (MTT), L929; format: cell-based, Mus musculus; settings: mouse, L929 fibroblast cells
Protocol: as §1, §2, §3

[3] = test system: Toxoplasma gondii BK strain; test: T. gondii tachyzoite intracellular proliferation in VERO host cells ([3H]uracil incorporation); format: cell-based; settings: Toxoplasma gondii, VERO host cells
Protocol: as §1, §2
Stock solutions of the Sulfadiazine (100 mg/ml 1 N NaOH; Catalog No. S8626) was freshly prepared before each experiment, and diluted to appropriate concentrations: 5.00, 25.00, 50.00, 125.00, 250.00, 500.00, 1250.00, and 2500.00 μg/ml, respectively in IMDM complete medium. All commercial reactants and solvents were purchased from either Sigma-Aldrich Laborchemikalien GmbH.
Tachyzoites of T. gondii, BK strain, were maintained in female C57BL/6 (H-2^b) and BALB/c (H-2^d) mice (with genetically determined high and low susceptibility, respectively to Toxoplasma infection) via serial intraperitoneal inoculation of 10^5–10^6 parasites per mouse in phosphate-buffered saline (PBS). After 48 to 96 h, parasites were harvested via peritoneal lavage using PBS, pH 7.2, and centrifuged at 200×g for 5 min to remove blood cells and cell debris. The supernatant containing tachyzoites was collected and centrifuged again at 2000×g for 15 min. The final pellet was resuspended in IMDM, quantified in a Burker’s chamber, and used in experimental assays. Inbred mice were kept under standard laboratory conventional conditions. All experimental procedures were conducted according to guidelines of the 9. Local Ethics Commission for Experiments on Animals in Lodz.
VERO, (2 × 10^4 cells/100 µl/well) were grown in complete medium (IMDM) on 96-well plates. After 24 h incubation, a medium was removed and then T. gondii […] tachyzoites, suspended in culture medium supplemented with 0.9–125.00 μg/ml diaminotriazines 4a–l and as a control-sulfadiazine (5.0–2500.0 μg/ml), were added (2 × 10^5 tachyzoites/200 µl/well) to the cell monolayers. After subsequent 48 h incubation 1 µCi/well of [^3H] uracil (Moravek Biochemicals Inc., Brea, CA, USA) was applied to each microculture for further 18–20 h. The amount of the isotope incorporated into the parasite nucleic acid pool, corresponding to the parasite growth, was measured by liquid scintillation counting with 1450 Microbeta Plus Liquid Scintillation Counter (Wallac Oy, Turku, Finland). The cpms of host cells alone (below 250/microculture) were subtracted from cpms of T. gondii infected microcultures (Dzitko et al. [2014]).

C/C(=N\NC(N)=S)c1ccc(Nc2nc(N)nc(N)n2)cc1 [Compound 3, (2E)-2-(1-(4-((4,6-diamino-1,3,5-triazin-2-yl)amino)phenyl)ethylidene)hydrazinecarbothioamide]
CC30 VERO (VERO cells): >125.0 µg/mL | viability at 24 h, 0.9 µg/ml ([1]; 0.9 µg/ml): 97.2% | viability at 24 h, 1.8 µg/ml ([1]; 1.8 µg/ml): 94% | viability at 24 h, 3.9 µg/ml ([1]; 3.9 µg/ml): 97.3% | viability at 24 h, 7.8 µg/ml ([1]; 7.8 µg/ml): 88.8% | viability at 24 h, 15.6 µg/ml ([1]; 15.6 µg/ml): 89.5% | viability at 24 h, 31.2 µg/ml ([1]; 31.2 µg/ml): 96.2% | viability at 24 h, 62.5 µg/ml ([1]; 62.5 µg/ml): 95.1% | viability at 24 h, 125 µg/ml ([1]; 125.0 µg/ml): 89.2% | CC30 L929 (mouse L929 fibroblast): >125.0 µg/mL | viability at 24 h, 0.9 µg/ml ([2]; 0.9 µg/ml): 110% | viability at 24 h, 1.8 µg/ml ([2]; 1.8 µg/ml): 116% | viability at 24 h, 3.9 µg/ml ([2]; 3.9 µg/ml): 111% | viability at 24 h, 7.8 µg/ml ([2]; 7.8 µg/ml): 106% | viability at 24 h, 15.6 µg/ml ([2]; 15.6 µg/ml): 105% | viability at 24 h, 31.2 µg/ml ([2]; 31.2 µg/ml): 112% | viability at 24 h, 62.5 µg/ml ([2]; 62.5 µg/ml): 111% | viability at 24 h, 125 µg/ml ([2]; 125.0 µg/ml): 110% | activity at 0.9 µg/mL ([3]; 0.9 µg/ml): 100% | activity at 1.8 µg/mL ([3]; 1.8 µg/ml): 107% | activity at 3.9 µg/mL ([3]; 3.9 µg/ml): 98.6% | activity at 7.8 µg/mL ([3]; 7.8 µg/ml): 84.2% | activity at 15.6 µg/mL ([3]; 15.6 µg/ml): 64.6% | activity at 31.2 µg/mL ([3]; 31.2 µg/ml): 57.8% | activity at 62.5 µg/mL ([3]; 62.5 µg/ml): 49.4% | activity at 125 µg/mL ([3]; 125.0 µg/ml): 48.7% | IC50 ([3]; GraphPad Prism curves, read-out: IC50 (50% inhibition of T. gondii proliferation in vitro)): 70.4 µg/mL (≈ 222 µM) | melting point: > 230 °C
